# Test results as given in PubChem BioAssay AID292 (DTP/NCI, 2004).
# “And” between values parts separate entries of the source, which are not always exact repeats. Equal entries are not always repeated. Inconclusive results and toxic doses are left out.
# System: B6C3F1 mice, ip Sarcoma M5076, median survival T/C
# Assay: NCI In Vivo Anticancer Drug Screen. Data for tumor model Sarcoma M5076 (intraperitoneal) in B6C3F1 mice
# Details: endpoint: median survival time, higher = longer survival
# Summary of the method: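 The readout is a ratio of survival in drug-treated animals to survival in animals given vehicle alone, taken in mice bearing a transplanted tumour line.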
# [1] = dose: 12.5 mg/kg/injection, schedule: Q04DX004 (ip), vehicle: water
# [2] = dose: 25.0 mg/kg/injection, schedule: Q04DX004 (ip), vehicle: water
# [3] = dose: 50.0 mg/kg/injection, schedule: Q04DX004 (ip), vehicle: water
# [4] = dose: 100.0 mg/kg/injection, schedule: Q04DX004 (ip), vehicle: water
# [5] = dose: 200.0 mg/kg/injection, schedule: Q04DX004 (ip), vehicle: water
# [6] = dose: 25.0 mg/kg/injection, schedule: Q04DX004 (ip), vehicle: saline with Tween-80
# [7] = dose: 50.0 mg/kg/injection, schedule: Q04DX004 (ip), vehicle: saline with Tween-80
# [8] = dose: 100.0 mg/kg/injection, schedule: Q04DX004 (ip), vehicle: saline with Tween-80
# [9] = dose: 200.0 mg/kg/injection, schedule: Q04DX004 (ip), vehicle: saline with Tween-80
# [10] = dose: 100.0 mg/kg/injection, schedule: Q04DX004 (ip), vehicle: saline
# [11] = dose: 200.0 mg/kg/injection, schedule: Q04DX004 (ip), vehicle: saline
# [12] = dose: 25.0 mg/kg/injection, schedule: Q04DX004 (ip), vehicle: Klucel (hydroxypropylcellulose) (HPC)
# [13] = dose: 50.0 mg/kg/injection, schedule: Q04DX004 (ip), vehicle: Klucel (hydroxypropylcellulose) (HPC)
# [14] = dose: 100.0 mg/kg/injection, schedule: Q04DX004 (ip), vehicle: Klucel (hydroxypropylcellulose) (HPC)
# [15] = dose: 200.0 mg/kg/injection, schedule: Q04DX004 (ip), vehicle: Klucel (hydroxypropylcellulose) (HPC)
compound,measurement,setting,value
COC(=O)NC1C(C)OC(OC2C/C=C(/C)C3C=CC4C(OC5CC(OC6CC(OC7CC(O)C(O)C(C)O7)C(OC7CC(O)C(OC)C(C)O7)C(C)O6)C(O)C(C)O5)C(C)CC(C)C4C3(C)/C(O)=C3\C(=O)OC4(CC(C)C(CO)=CC4/C=C\2C)C3=O)CC1(C)[N+](=O)[O-] (stereo not drawn),T/C,[1],97 % of control
same,T/C,[2],100 % of control
same,T/C,[3],94 % of control
same,T/C,[4],104 % of control
same,T/C,[5],111 % of control
O=S1ON=C(C2CCC(C3=NOS(=O)O3)C2)O1 (stereo not drawn),T/C,[6],108 % of control
same,T/C,[7],102 % of control
same,T/C,[8],103 % of control
same,T/C,[9],87 % of control
Cc1cc2nncn2c2nnnn12,T/C,[1],101 % of control
same,T/C,[2],98 % of control
same,T/C,[3],95 % of control
same,T/C,[4],101 % of control
same,T/C,[5],98 % of control
Nc1ccn(C2OC(CO)C(O)C2O)c(=O)n1 (stereo not drawn),T/C,"dose: 12.5 mg/kg/injection, schedule: Q01DX009 (ip), vehicle: saline",150 % of control
same,T/C,"dose: 25.0 mg/kg/injection, schedule: Q01DX009 (ip), vehicle: saline",162 % of control
C/C([O-])=c1\c(C)nn2ccc[n+]12,T/C,[6],100 % of control
same,T/C,[7],106 % of control
same,T/C,[8],103 % of control
same,T/C,[9],94 % of control
O=C1CN2CCN3CC(=O)NC(=O)[C@H]3[C@H]2C(=O)N1,T/C,"dose: 28.13 mg/kg/injection, schedule: Q04DX004 (ip), vehicle: saline with Tween-80",101 % of control
same,T/C,"dose: 56.25 mg/kg/injection, schedule: Q04DX004 (ip), vehicle: saline with Tween-80",98 % of control
same,T/C,"dose: 112.5 mg/kg/injection, schedule: Q04DX004 (ip), vehicle: saline with Tween-80",93 % of control
same,T/C,"dose: 225.0 mg/kg/injection, schedule: Q04DX004 (ip), vehicle: saline with Tween-80",92 % of control
same,T/C,"dose: 450.0 mg/kg/injection, schedule: Q04DX004 (ip), vehicle: saline with Tween-80",91 % of control
CN(C)CCC(=O)C(=Cc1ccc(O)cc1)C(=O)CCN(C)C,T/C,"dose: 25.0 mg/kg/injection, schedule: Q04DX004 (ip), vehicle: saline",103 % of control
same,T/C,"dose: 50.0 mg/kg/injection, schedule: Q04DX004 (ip), vehicle: saline",100 % of control
same,T/C,[10],104 % of control
same,T/C,[11],100 % of control
CC1CC(Nc2ccc(NC3=CC(=O)OC(C)C3)cc2)=CC(=O)O1 (stereo not drawn),T/C,"dose: 37.5 mg/kg/injection, schedule: Q04DX004 (ip), vehicle: saline with Tween-80",99 % of control
same,T/C,"dose: 75.0 mg/kg/injection, schedule: Q04DX004 (ip), vehicle: saline with Tween-80",97 % of control
same,T/C,"dose: 150.0 mg/kg/injection, schedule: Q04DX004 (ip), vehicle: saline with Tween-80",94 % of control
same,T/C,"dose: 300.0 mg/kg/injection, schedule: Q04DX004 (ip), vehicle: saline with Tween-80",90 % of control
CC1(C)C2CCC(C2)C1/C=C1/SC(=S)NC1=O (stereo not drawn),T/C,[12],95 % of control
same,T/C,[13],98 % of control
same,T/C,[14],90 % of control
same,T/C,[15],91 % of control
same,T/C,"dose: 400.0 mg/kg/injection, schedule: Q04DX004 (ip), vehicle: Klucel (hydroxypropylcellulose) (HPC)",87 % of control
O=c1[nH]c(=O)n(C2OC(CF)C(O)C2O)cc1N1CCOCC1 (stereo not drawn),T/C,"dose: 17.5 mg/kg/injection, schedule: Q04DX004 (ip), vehicle: saline",100 % of control
same,T/C,"dose: 35.0 mg/kg/injection, schedule: Q04DX004 (ip), vehicle: saline",104 % of control
same,T/C,"dose: 70.0 mg/kg/injection, schedule: Q04DX004 (ip), vehicle: saline",97 % of control
same,T/C,"dose: 140.0 mg/kg/injection, schedule: Q04DX004 (ip), vehicle: saline",104 % of control
same,T/C,"dose: 280.0 mg/kg/injection, schedule: Q04DX004 (ip), vehicle: saline",102 % of control
CC(=O)NCCSSCCCCS(=O)O,T/C,"dose: 37.5 mg/kg/injection, schedule: Q04DX004 (ip), vehicle: saline",99 % of control
same,T/C,"dose: 75.0 mg/kg/injection, schedule: Q04DX004 (ip), vehicle: saline",98 % of control
same,T/C,"dose: 150.0 mg/kg/injection, schedule: Q04DX004 (ip), vehicle: saline",100 % of control
same,T/C,"dose: 300.0 mg/kg/injection, schedule: Q04DX004 (ip), vehicle: saline",97 % of control
same,T/C,"dose: 600.0 mg/kg/injection, schedule: Q04DX004 (ip), vehicle: saline",104 % of control
OC1(c2cccc(Cl)c2)C2=NCCCN2c2ccccc21 (stereo not drawn),T/C,"dose: 6.25 mg/kg/injection, schedule: Q04DX004 (ip), vehicle: saline with Tween-80",102 % of control
same,T/C,"dose: 12.5 mg/kg/injection, schedule: Q04DX004 (ip), vehicle: saline with Tween-80",103 % of control
same,T/C,[6],100 % of control
same,T/C,[7],99 % of control
CCOC(=O)c1cc(-c2ccccc2)c(OC)c(=O)nc1-c1ccccc1,T/C,[7],89 % of control
O=C(CN1CCOCC1)Nc1nc(-c2ccc(Cl)cc2)cs1,T/C,"dose: 6.25 mg/kg/injection, schedule: Q04DX004 (ip), vehicle: DMSO",100 % of control
same,T/C,"dose: 12.5 mg/kg/injection, schedule: Q04DX004 (ip), vehicle: DMSO",93 % of control
same,T/C,"dose: 25.0 mg/kg/injection, schedule: Q04DX004 (ip), vehicle: DMSO",121 % of control
same,T/C,[6],112 % of control
same,T/C,"dose: 50.0 mg/kg/injection, schedule: Q04DX004 (ip), vehicle: DMSO",89 % of control
same,T/C,[7],92 % of control
same,T/C,"dose: 100.0 mg/kg/injection, schedule: Q04DX004 (ip), vehicle: DMSO",87 % of control and 92 % of control
same,T/C,[8],91 % of control
same,T/C,[9],98 % of control
same,T/C,"dose: 400.0 mg/kg/injection, schedule: Q04DX004 (ip), vehicle: saline with Tween-80",105 % of control
NC(=S)N/N=C/c1cc(=O)c2cc(Cl)ccc2o1,T/C,"dose: 75.0 mg/kg/injection, schedule: Q04DX004 (ip), vehicle: DMSO",92 % of control
Nc1ccccc1N,T/C,"dose: 12.0 mg/kg/injection, schedule: Q04DX004 (ip), vehicle: Klucel (hydroxypropylcellulose) (HPC)",99 % of control
same,T/C,[12],98 % of control
same,T/C,[13],110 % of control
same,T/C,[14],98 % of control
same,T/C,[15],103 % of control
Cn1nnc2c(C(N)=O)ncn2c1=O,T/C,[10],156 % of control
same,T/C,[11],170 % of control
CC(=O)N1CN=C2Sc3ccccc3N2C1,T/C,"dose: 18.75 mg/kg/injection, schedule: Q04DX004 (ip), vehicle: Klucel (hydroxypropylcellulose) (HPC)",102 % of control
same,T/C,"dose: 37.5 mg/kg/injection, schedule: Q04DX004 (ip), vehicle: Klucel (hydroxypropylcellulose) (HPC)",111 % of control
same,T/C,"dose: 75.0 mg/kg/injection, schedule: Q04DX004 (ip), vehicle: Klucel (hydroxypropylcellulose) (HPC)",103 % of control
same,T/C,"dose: 150.0 mg/kg/injection, schedule: Q04DX004 (ip), vehicle: Klucel (hydroxypropylcellulose) (HPC)",102 % of control
CCC1=C(c2cccc(OC(C)=O)c2)C(C)c2ccc(OC(C)=O)cc21 (stereo not drawn),T/C,"dose: 6.25 mg/kg/injection, schedule: Q04DX004 (ip), vehicle: Klucel (hydroxypropylcellulose) (HPC)",93 % of control
same,T/C,"dose: 12.5 mg/kg/injection, schedule: Q04DX004 (ip), vehicle: Klucel (hydroxypropylcellulose) (HPC)",93 % of control
same,T/C,[12],100 % of control
same,T/C,[13],116 % of control
same,T/C,[14],105 % of control
same,T/C,[15],91 % of control
[CH3][Sn]([CH3])([Cl])[c]1cc[c]([Sn]([CH3])([CH3])[Cl])cc1,T/C,"dose: 0.25 mg/kg/injection, schedule: Q04DX004 (ip), vehicle: saline",108 % of control
same,T/C,"dose: 0.5 mg/kg/injection, schedule: Q04DX004 (ip), vehicle: saline",105 % of control
same,T/C,"dose: 1.0 mg/kg/injection, schedule: Q04DX004 (ip), vehicle: saline",87 % of control
same,T/C,"dose: 2.0 mg/kg/injection, schedule: Q04DX004 (ip), vehicle: saline",91 % of control
COc1ccc(-n2cc[n+](C)c2/C=N\O)cc1,T/C,"dose: 31.25 mg/kg/injection, schedule: Q04DX004 (ip), vehicle: saline with Tween-80",101 % of control
same,T/C,"dose: 62.5 mg/kg/injection, schedule: Q04DX004 (ip), vehicle: saline with Tween-80",94 % of control
same,T/C,"dose: 125.0 mg/kg/injection, schedule: Q04DX004 (ip), vehicle: saline with Tween-80",114 % of control
